In ChEMBL document CHEMBL5512682, “Discovery of BMS-986308: A Renal Outer Medullary Potassium Channel Inhibitor for the Treatment of Heart Failure” (J Med Chem, 2024):

Legend:
[1] = Metabolic stability in human liver microsomes assessed as parent compound remaining at 10 uM measured after 10 mins in presence of NADPH and GSH by UPLC-MS/MS analysis; format: ADME, Microsome; settings: read-out: Stability
[2] = Metabolic stability in rat liver microsomes assessed as parent compound remaining at 10 uM measured after 10 mins in presence of NADPH and GSH by UPLC-MS/MS analysis; format: ADME, Microsome; settings: read-out: Stability
hERG (KCNH2) [3] = molecular target: T1, hERG (KCNH2) (Homo sapiens, UniProt Q12809); assay: Inhibition of human ERG expressed in HEK293 cells at 10 uM incubated for 2 to 5 mins by Manual patch clamp assay relative to control; format: toxicity, cell-based; settings: HEK293 cells expressing hERG, time 2-5 min
T1 sequence (Q12809 whole entry): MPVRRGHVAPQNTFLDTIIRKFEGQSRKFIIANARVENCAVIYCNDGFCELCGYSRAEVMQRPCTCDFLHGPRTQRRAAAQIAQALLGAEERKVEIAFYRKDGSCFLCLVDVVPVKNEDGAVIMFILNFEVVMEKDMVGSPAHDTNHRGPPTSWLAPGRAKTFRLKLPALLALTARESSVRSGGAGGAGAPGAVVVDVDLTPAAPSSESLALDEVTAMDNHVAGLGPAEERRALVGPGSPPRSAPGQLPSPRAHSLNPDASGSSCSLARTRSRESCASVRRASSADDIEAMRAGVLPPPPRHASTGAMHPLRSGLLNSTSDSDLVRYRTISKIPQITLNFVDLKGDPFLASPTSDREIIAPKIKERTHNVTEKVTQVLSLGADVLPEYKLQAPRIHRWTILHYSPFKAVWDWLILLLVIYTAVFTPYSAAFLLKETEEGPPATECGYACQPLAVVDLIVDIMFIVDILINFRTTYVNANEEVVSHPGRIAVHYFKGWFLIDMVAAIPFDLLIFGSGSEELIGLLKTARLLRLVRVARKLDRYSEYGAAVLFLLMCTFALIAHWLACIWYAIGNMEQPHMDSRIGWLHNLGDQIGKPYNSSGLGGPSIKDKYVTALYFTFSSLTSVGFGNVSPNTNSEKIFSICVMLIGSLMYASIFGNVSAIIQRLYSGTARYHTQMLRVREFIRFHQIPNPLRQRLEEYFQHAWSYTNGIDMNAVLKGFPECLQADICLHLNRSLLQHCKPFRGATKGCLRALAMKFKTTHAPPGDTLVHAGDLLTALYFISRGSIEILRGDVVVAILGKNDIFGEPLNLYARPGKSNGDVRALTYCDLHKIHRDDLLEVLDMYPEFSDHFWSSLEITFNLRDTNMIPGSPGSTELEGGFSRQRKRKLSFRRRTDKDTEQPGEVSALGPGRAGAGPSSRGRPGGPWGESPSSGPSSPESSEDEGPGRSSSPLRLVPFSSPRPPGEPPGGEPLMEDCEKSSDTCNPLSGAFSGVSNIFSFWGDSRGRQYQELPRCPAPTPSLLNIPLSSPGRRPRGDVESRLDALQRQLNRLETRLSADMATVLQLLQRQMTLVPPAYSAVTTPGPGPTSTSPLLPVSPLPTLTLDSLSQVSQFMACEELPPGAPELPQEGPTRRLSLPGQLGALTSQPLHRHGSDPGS

[4] = molecular target: T2, ATP-sensitive inward rectifier potassium channel 1 (Homo sapiens, UniProt P48048)
T2 sequence (P48048 whole entry): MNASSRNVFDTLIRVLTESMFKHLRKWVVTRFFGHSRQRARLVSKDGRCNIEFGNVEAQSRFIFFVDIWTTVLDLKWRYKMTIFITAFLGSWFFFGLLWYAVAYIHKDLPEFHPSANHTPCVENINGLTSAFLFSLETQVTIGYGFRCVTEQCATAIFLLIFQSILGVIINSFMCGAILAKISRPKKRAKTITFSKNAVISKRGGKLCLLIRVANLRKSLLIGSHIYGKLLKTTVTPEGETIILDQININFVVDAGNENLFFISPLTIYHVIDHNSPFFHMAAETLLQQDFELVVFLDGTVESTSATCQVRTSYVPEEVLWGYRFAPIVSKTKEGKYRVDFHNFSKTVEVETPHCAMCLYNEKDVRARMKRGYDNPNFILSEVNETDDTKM
Description: Inhibition of human ROMK expressed in T-REX-CHO cells incubated for 30 mins by thallium flux assay

hERG (KCNH2) [5] = molecular target: T1, hERG (KCNH2); assay: Inhibition of human ERG expressed in HEK293 cells at 1 uM incubated for 2 to 5 mins by Manual patch clamp assay relative to control; format: toxicity, cell-based; settings: HEK293 cells expressing hERG, time 2-5 min
[6] = molecular target: T2, ATP-sensitive inward rectifier potassium channel 1; remark: listed apart in the source
Description: Inhibition of human ROMK expressed in T-REX-CHO cells incubated for 3 to 8 mins by whole cell manual patch clamp assay

hERG (KCNH2) [7] = molecular target: T1, hERG (KCNH2); assay: Inhibition of human ERG expressed in HEK293 cells at 3 uM incubated for 2 to 5 mins by Manual patch clamp assay relative to control; format: toxicity, cell-based; settings: HEK293 cells expressing hERG, time 2-5 min
[8] = Glutathione reactivity in human liver microsomes assessed as GSH-adduct formation at 10 uM incubated for 60 mins in presence of NADPH and GSH by HPLC-MS analysis; format: ADME, Microsome; settings: 1 h
Homo sapiens [9] = organism: Homo sapiens; assay: Selectivity ratio of IC50 for inhibition of ERG expressed in HEK293 cells to IC50 for inhibition of human ROMK expressed in T-REX-CHO cells incubated for 3 to 8 mins by whole cell manual patch clamp assay; format: cell-based
[10] = molecular target: Voltage-gated inwardly rectifying potassium channel KCNH2 (Homo sapiens, UniProt Q12809); assay: Inhibition of human ERG expressed in HEK293 cells incubated for 2 to 5 mins by Manual patch clamp assay; format: toxicity, cell-based
Sequence of Voltage-gated inwardly rectifying potassium channel KCNH2 (Q12809 whole entry): as the sequence (Q12809 whole entry) above

Homo sapiens [11] = organism: Homo sapiens; assay: Selectivity ratio of IC50 for inhibition of ERG expressed in HEK293 cells to IC50 for inhibition of human ROMK expressed in T-REX-CHO cells incubated for 30 mins by thallium flux assay; format: cell-based

SMILES	remaining at 10 min, 10 µM [1]	remaining at 10 min, 10 µM [2]	IC50 [4]	inhibition at 1 µM (hERG (KCNH2) [5])	further results
Cc1cc(-n2cc(CN3CC(=O)N[C@H](c4ccc5c(c4C)COC5=O)C3)cn2)ncc1C#N	64%	67%			inhibition at 10 µM (hERG (KCNH2) [3]): 42%
N#Cc1ccc(-c2ccc3c(c2)CCN(C[C@H](O)c2ccc4c(c2)COC4=O)C3)cc1F			32 nM	97%	
N#Cc1ccc(-c2ccc3c(n2)CCN(C[C@H](O)c2ccc4c(c2)COC4=O)C3)cc1F			61 nM	80%	IC50 [6]: 37 nM
Cc1cc(-n2cc(CN3CCO[C@H](c4ccc5c(c4C)COC5=O)C3)cn2)ncc1C#N	49%	60%		26%	
Cc1cc(-n2cc(CN3CCCC(c4ccc5c(c4C)COC5=O)C3)cn2)ncc1C#N (stereo not given)	59%	29%		75%	
Cc1cc(-c2ccc(CNC[C@H](O)c3ccc4c(c3C)COC4=O)cn2)ncc1C#N	90%	46%			inhibition at 10 µM (hERG (KCNH2) [3]): 71%
Cc1cc(-n2cc(CN3CC(O)CC(c4ccc5c(c4C)COC5=O)C3)cn2)ncc1C#N (stereo not given)	54%	50%			inhibition at 3 µM (hERG (KCNH2) [7]): 76%; Activity [8]: Active
Cc1cc(-n2ccc(CNC[C@H](O)c3ccc4c(c3C)COC4=O)n2)ncc1C#N	12%	1%	430 nM		inhibition at 10 µM (hERG (KCNH2) [3]): 59%
Cc1cc(-n2ncc(CN3C[C@@H](c4ccc5c(c4C)COC5=O)NC(C)(C)C3)n2)ncc1C#N	62%	100%			
Cc1cc(-n2cc(CN3CC[C@@H](O)[C@H](c4ccc5c(c4C)COC5=O)C3)cn2)ncc1C#N	64%	75%			Activity [8]: Not Active
COc1c(CNC[C@H](O)c2ccc3c(c2C)COC3=O)cnn1-c1cc(C)c(C#N)cn1				91%	
Cc1cc(-n2cc(CN3CC(O)C(c4ccc5c(c4C)COC5=O)C3)cn2)ncc1C#N (stereo not given)	100%	84%	30 nM	58%	
N#Cc1ccc(-c2ncc3c(n2)CCN(C[C@H](O)c2ccc4c(c2)COC4=O)C3)cc1F	73%	44%	74 nM	50%	
Cc1cc(-n2cnc(CNC[C@H](O)c3ccc4c(c3C)COC4=O)c2)ncc1C#N	97%	67%	46 nM		inhibition at 10 µM (hERG (KCNH2) [3]): 72%
Cc1cc(-n2cc(CN3CCNC(c4ccc5c(c4C)COC5=O)C3C)cn2)ncc1C#N (stereo not given)	46%	62%		45%	Activity [8]: Active
Cc1cc(-c2ncc(CNC[C@H](O)c3ccc4c(c3C)COC4=O)s2)ncc1C#N	85%	33%			inhibition at 10 µM (hERG (KCNH2) [3]): 72%
Cc1c([C@@H](O)CN2CCc3nc(-c4ccc(C#N)c(F)c4)ncc3C2)ccc2c1COC2=O	62%	96%	8.8 nM	71%	IC50 [6]: 9.4 nM; Ratio IC50 (Homo sapiens [9]): 40; IC50 [10]: 410 nM; Ratio IC50 (Homo sapiens [11]): 40
Cc1cc(-n2cc(CNC[C@H](O)c3ccc4c(c3C)COC4=O)cn2)ncc1C#N	86%	72%			
Cc1cc(-n2cc(CN3CCN[C@H](c4ccc5c(c4C)COC5=O)C3)cn2)ncc1C#N	96%	90%			
Cc1cc(-n2cc(CN3C[C@H](CO)N[C@H](c4ccc5c(c4C)COC5=O)C3)cn2)ncc1C#N	76%	93%			Activity [8]: Not Active
Cc1cc(-n2ncc(CN3CCN[C@H](c4ccc5c(c4C)COC5=O)C3)n2)ncc1C#N	100%	100%			
Cc1cc(-n2cc(CN3C[C@@H](c4ccc5c(c4C)COC5=O)OC(C)(C)C3)cn2)ncc1C#N	44%	56%		13%	
Cc1cc(-n2cc(CNC[C@H](O)c3ccc4c(c3C)COC4=O)c(C(F)F)n2)ncc1C#N	18%	1%			inhibition at 10 µM (hERG (KCNH2) [3]): 77%
Cc1cc(-n2ncc(CNC[C@H](O)c3ccc4c(c3C)COC4=O)n2)ncc1C#N	92%	94%	52 nM		IC50 [6]: 8.1 nM; inhibition at 10 µM (hERG (KCNH2) [3]): 87%
Cc1cc(-n2cc(CN3CC(c4ccc5c(c4C)COC5=O)NCC3C)cn2)ncc1C#N (stereo not given)					Activity [8]: Active
N#Cc1ccc(-c2ccc3c(c2)CCN(CCc2ccc4c(c2)COC4=O)C3)cc1F	72%	8%	59 nM		IC50 [6]: 13 nM; IC50 [10]: 10 nM
Cc1c([C@@H](O)CN(C)Cc2ccc(-c3ccc(C#N)c(F)c3)nc2)ccc2c1COC2=O	40%	7%		68%	
Cc1c([C@@H](O)CNCc2ccc(-c3ccc(C#N)c(F)c3)nc2)ccc2c1COC2=O	75%	51%		66%	
